Patent US5075287A, “Muramyl peptide derivatives and immunoregulating compositions containing them” (priority 1989, dated 1991)
Like-named read-outs stand apart in the source and are kept apart here.

Columns and labels:
[1] = system: L-1210 mouse leukemia cells; assay: Activation of macrophages (growth inhibition of tumor cells by intraperitoneal macrophages of treated mice, MTT assay); format: cell-based; settings: macrophages taken 3 days after i.p. 0.2 ml of 500 μg/ml, macrophage:L-1210 20:1, 72 hours
Procedure: A compound of the present invention was dissolved in lipidmicrosphere to obtain a solution in a concentration of 500μg/ml, and 0.2 ml of such solution was intraperitoneally administered to each mouse in one group consisting of seven female CDF1 mice. Intraperitoneal macrophages obtained three days after the administration and L-1210 mouse leukemia cells were mixed in the ratio of cell numbers of 20:1, respectively. Two hundred μl of the mixture was placed in each well of one sheet of 96 well microtiter plate. After 72 hours, the increase of the cell number in each well was determined by a MTT assay method. The ratio of the cell number for the mixture of the L-1210 cells and the macrophage relative to the cell number for the L-1210 cells only(growth inhibitory ratio) was determined, and the results are shown in Table 3.

[2] = system: hepatitis B virus surface antigen (HBs); assay: Hepatitis-vaccine enhancing activity (adjuvant activity): anti-HBs IgG in mouse serum by ELISA; format: in vivo, female CDF1 mice; settings: Experiment 1, 5000-fold dilution
Procedure: A compound of the present invention was dissolved in lipidmicrosphere (1 mg/ml). On the other hand, a solution of hepatitis B virus surface antigen (HBs) in physiological saline was prepared (50 μg/ml). The above solutions in equal amounts were mixed to prepare a test solution. A control solution was prepared by the exclusion of the compound of the present invention from said test solution. A mixture of a suspension of aluminium hydroxide gel in physiological saline (1 mg/ml) and said hepatitis vaccine preparation in equal amounts was prepared as another control solution. The test solution (0.2 ml) was intraperitoneally administered to each mouse in one group consisting of seven female CDF1 mice.
Blood samples were collected from the fundus ocluli vein of each mouse every week after the administration and then centrifuged to obtain serums. Three weeks after the administration, 0.2 ml of the test liquid was intraperitoneally administered again to each mouse for secondary stimulation. Then blood collecting was conducted every week to obtain serums after the application of the secondary stimulation, in the same manner as that described above.
The amount of the IgG antibodies against the hepatitis B virus surface antigens (HBs) in the serums thus obtained was determined with an ELISA method.

[3] = system: influenza HA vaccine (B/Nagasaki/1/87 strain); format: in vivo, female CDF1 mice; settings: Experiment 1, 5000-fold dilution
[4] = 1 W after i.p. administration, compound in lipidmicrosphere + HBs
[5] = 4 W (after secondary stimulation at 3 weeks)
[6] = 5 W (after secondary stimulation at 3 weeks)
[7] = 1 W after i.p. administration, compound in lipidmicrosphere + HA vaccine

Row | Structure (SMILES) | Growth inhibitory ratio of L-1210 mouse leukemia cells [1] [%] | Anti-HBs IgG antibody level in serum (ELISA absorbance at 415 nm) [2, 4] [O.D 415 nm] | Anti-HBs IgG antibody level in serum (ELISA absorbance at 415 nm) ([2]; 2 W) [O.D 415 nm] | Anti-HBs IgG antibody level in serum (ELISA absorbance at 415 nm) ([2]; 3 W) [O.D 415 nm] | Anti-HBs IgG antibody level in serum (ELISA absorbance at 415 nm) [2, 5] [O.D 415 nm] | Anti-HBs IgG antibody level in serum (ELISA absorbance at 415 nm) [2, 6] [O.D 415 nm] | Anti HA serum antigen value (average value ± S.D.) [3, 7] [O.D 415 nm] | Anti HA serum antigen value (average value ± S.D.) ([3]; 2 W) [O.D 415 nm] | Anti HA serum antigen value (average value ± S.D.) ([3]; 3 W) [O.D 415 nm] | Anti HA serum antigen value (average value ± S.D.) [3, 5] [O.D 415 nm] | Anti HA serum antigen value (average value ± S.D.) [3, 6] [O.D 415 nm]
1 | CCCCCCCCCCCCCCC(CCCCCCCCCCCCCC)C(=O)S[C@@H]1O[C@H](COC(=O)CCCCCCCCCCCCC)[C@@H](O)[C@H](O[C@H](C)C(=O)N[C@@H](C)C(=O)N[C@H](CCC(=O)OC)C(N)=O)[C@H]1NC(C)=O [Example 9, N-[2-0-{2-Acetamido-2,3-dideoxy-6-0-tetradecanoyl-1-S-(2-tetradcylhexadecanoyl)-1-thio-β-D-glucopyranos-3-yl}-D-lactoyl]-L-alanyl-D-isoglutamine methylester] | 58.5 | 0.014 ± 0.002 | 0.092 ± 0.003 | 0.149 ± 0.001 | 0.681 ± 0.012 | 0.702 ± 0.006 | 0.019 ± 0.002 | 0.168 ± 0.005 | 0.392 ± 0.006 | 1.342 ± 0.005 | 1.329 ± 0.026
2 | CCCCCCCCCCCCCCC(CCCCCCCCCCCCCC)C(=O)O[C@H]1O[C@H](COC(=O)CCCCCCCCC)[C@@H](O)[C@H](O[C@H](C)C(=O)N[C@@H](C)C(=O)N[C@H](CCC(=O)OC)C(N)=O)[C@H]1NC(C)=O [Example 5] | 57.8 | 0.001 ± 0.001 | 0.021 ± 0.001 | 0.048 ± 0.001 | 0.643 ± 0.013 | 0.490 ± 0.009 | 0 | 0.091 ± 0.002 | 0.377 ± 0.001 | 1.037 ± 0.027 | 1.068 ± 0.004
3 | CCCCCCCCCCCCCCC(CCCCCCCCCCCCCC)C(=O)O[C@H]1O[C@H](CO)[C@@H](O)[C@H](O[C@H](C)C(=O)N[C@@H](C)C(=O)N[C@H](CCC(=O)OC)C(N)=O)[C@H]1NC(C)=O [Example 1] | 40.0 | 0.001 ± 0.001 | 0.018 ± 0.000 | 0.074 ± 0.002 | 0.815 ± 0.011 | 0.843 ± 0.005 | 0.007 ± 0.003 | 0.174 ± 0.003 | 0.232 ± 0.003 | 1.243 ± 0.036 | 1.201 ± 0.002
